Results from patent US20100256243A1, “Dosing Regimen for the Treatment of Alzheimer's Disease With Sulfonyl Fluorides” (priority 2009, published 2010).
Positions count from the first letter of the chain named. Where “and” joins values, the source holds several entries; their conditions need not be identical. Equal values may be shown once. Entries after “also recorded” stand apart in the source; their conditions may differ.

Key:
brain AChE [1] = molecular target: T1, brain AChE (Rattus norvegicus, UniProt P37136); conditions: ex vivo, rats, without toxicity (Moss et al., 1985); cited from earlier work
T1 construct: host or cells: rat brain, ex vivo
T1 sequence (P37136 32-614): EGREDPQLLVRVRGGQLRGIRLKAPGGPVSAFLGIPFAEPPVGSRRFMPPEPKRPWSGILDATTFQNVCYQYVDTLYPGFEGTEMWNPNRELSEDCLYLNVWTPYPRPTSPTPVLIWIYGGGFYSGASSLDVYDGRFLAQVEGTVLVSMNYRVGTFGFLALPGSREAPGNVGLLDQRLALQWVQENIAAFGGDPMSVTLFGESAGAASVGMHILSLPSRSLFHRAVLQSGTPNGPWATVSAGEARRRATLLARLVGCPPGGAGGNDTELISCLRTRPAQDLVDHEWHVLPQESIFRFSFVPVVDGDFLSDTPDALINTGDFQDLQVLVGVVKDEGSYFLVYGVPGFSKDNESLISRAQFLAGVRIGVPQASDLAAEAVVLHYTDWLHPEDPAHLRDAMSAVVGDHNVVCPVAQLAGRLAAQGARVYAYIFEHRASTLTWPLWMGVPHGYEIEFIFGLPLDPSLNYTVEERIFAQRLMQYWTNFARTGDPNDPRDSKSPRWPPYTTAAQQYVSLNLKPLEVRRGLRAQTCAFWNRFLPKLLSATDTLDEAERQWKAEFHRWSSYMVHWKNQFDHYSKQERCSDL

[2] = system: cerebrally ischemic animals; conditions: compared to untreated controls (U.S. Patent Publication 2003/0087959); cited from earlier work
[3] = system: brain acetylcholinesterase; conditions: cited from earlier work
rats [4] = conditions: daily doses (Palacios-Esquivel et al., 1993); cited from earlier work
animals = assay: Acute oral toxicity (LD50) of MSF in animals; type: in vivo, rats
Method: The acute oral LD50, as indicated by the data, was determined to be greater than 3 mg/kg but less than 4 mg/kg.

brain AChE [5] = molecular target: T2, brain AChE (Mus musculus, UniProt P21836); conditions: ex vivo, mice, without toxicity (Kobayashi et al., 1999); cited from earlier work
T2 construct: host or cells: mouse brain, ex vivo
T2 sequence (P21836 32-614): T1 sequence (P37136 32-614) with I59V, T109A, S128A, T144A, S271A, D313E, A392T, V467T, Q478K, R499Q

rats [6] = conditions: daily doses (Borlongan et al., 2005); cited from earlier work
[7] = system: patients with senile dementia of Alzheimer type; conditions: patients with senile dementia of Alzheimer type (U.S. Pat. No. 5,798,392); cited from earlier work
brain AChE [8] = conditions: oral MSF 0.5 mg/kg daily, after 5 days of administration; cited from earlier work
rats [9] = assay: Daily dosing with 1.0 mg/kg MSF/peanut oil in rats (clinical signs of distress and/or death); type: in vivo
[10] = system: septal choline acetyltransferase; conditions: cerebrally ischemic animals, versus vehicle-treated animals (U.S. Patent Publication 2003/0087959); cited from earlier work
[11] = molecular target: T3, acetylcholinesterase in the brain (Rattus norvegicus, UniProt P37136); conditions: cerebrally ischemic animals (U.S. Patent Publication 2003/0087959); cited from earlier work
T3 construct: host or cells: brain of cerebrally ischemic animals, dosed in vivo
T3 sequence (P37136 32-614): T1 sequence (P37136 32-614)

[12] = molecular target: T4, brain acetylcholinesterase (Rattus norvegicus, UniProt P37136); conditions: cited from earlier work
T4 construct: host or cells: rodent brain, dosed in vivo
T4 sequence (P37136 32-614): T1 sequence (P37136 32-614)

rats [13] = assay: Alternating day dosing with 2.0 mg/kg MSF/peanut oil in rats (death); type: in vivo; conditions: 2 mg/kg every other day; for Number Alive/Numbered Treated / lethality: oral
Method: To confirm the “pulsing” theory for MSF administration, the inventor continued the experiment described above and extended MSF treatment to double the total lethal dose observed in Example 1 (from 4 mg/kg to 8 mg/kg). Rats in were treated at 2 mg/kg/every other day for 2 more round (total of 8 mg/kg in 8 days).

[14] = system: enzyme in the periphery (cholinesterase); conditions: rodents, administered daily at low doses (Moss et al., 1988); cited from earlier work
human cortex AChE = molecular target: T5, human cortex AChE (Homo sapiens, UniProt P22303); conditions: in vitro (Pacheco et al., 1995); cited from earlier work
T5 construct: host or cells: human cortex, in vitro

aged rats = conditions: daily doses (Malin et al., 1993); cited from earlier work
[15] = relatively small doses over a long period of time (Moss et al., 1988; 1985)

T5 sequence (P22303 32-614): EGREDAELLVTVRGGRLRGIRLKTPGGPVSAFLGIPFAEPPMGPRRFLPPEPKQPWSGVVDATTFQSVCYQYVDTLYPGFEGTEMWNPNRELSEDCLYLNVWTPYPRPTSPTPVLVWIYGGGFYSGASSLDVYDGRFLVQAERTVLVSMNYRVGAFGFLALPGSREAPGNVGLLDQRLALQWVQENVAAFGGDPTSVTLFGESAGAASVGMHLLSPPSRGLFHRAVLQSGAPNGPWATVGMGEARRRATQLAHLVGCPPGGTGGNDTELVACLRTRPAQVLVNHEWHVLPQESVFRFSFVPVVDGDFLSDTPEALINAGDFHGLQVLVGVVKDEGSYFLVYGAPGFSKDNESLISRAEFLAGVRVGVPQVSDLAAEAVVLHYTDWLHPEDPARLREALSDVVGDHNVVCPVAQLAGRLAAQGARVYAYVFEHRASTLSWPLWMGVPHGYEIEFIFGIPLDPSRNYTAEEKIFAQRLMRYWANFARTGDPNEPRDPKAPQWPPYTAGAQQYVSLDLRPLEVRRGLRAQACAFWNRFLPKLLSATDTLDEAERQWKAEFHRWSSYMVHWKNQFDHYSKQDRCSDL

For `CS(=O)(=O)F` [MSF, methanesulfonyl fluoride], the “inhibition of brain AChE” value (brain AChE [1]) is listed as “up to 80%”, the cognitive performance [2] is listed as “improved cognitive performance” and the “inhibition of brain AChE” value ([3]; ex vivo, monkey cortex, without toxicity (Moss et al., 1988)) is listed as “up to 80%”. The “inhibition of monkey brain acetylcholinesterase” value [3, 15] was 80-90%, the reversing scopolamine-induced amnesia (rats [4]) was “highly effective” and the “Number Dead/Number Treated, Combination” value (animals; 1 mg/kg (0.4 mg/mL)) was 0/10. For the same compound, the “Number Dead/Number Treated, Females” value (animals; 1 mg/kg (0.4 mg/mL)) was 0/5, the “Number Dead/Number Treated, Males” value (animals; 1 mg/kg (0.4 mg/mL)) was 0/5 and the “Number Dead/Number Treated, Combination” value (animals; 2 mg/kg (0.8 mg/mL)) was 0/10. The “Number Dead/Number Treated, Females” value (animals; 2 mg/kg (0.8 mg/mL)) was 0/5, the “Number Dead/Number Treated, Males” value (animals; 2 mg/kg (0.8 mg/mL)) was 0/5 and the “Number Dead/Number Treated, Combination” value (animals; 3 mg/kg (1.2 mg/mL)) was 1/10. For the same compound, the “Number Dead/Number Treated, Females” value (animals; 3 mg/kg (1.2 mg/mL)) was 1/5, the “Number Dead/Number Treated, Males” value (animals; 3 mg/kg (1.2 mg/mL)) was 0/5 and the “Number Dead/Number Treated, Combination” value (animals; 4 mg/kg (1.6 mg/mL)) was 10/10. The “Number Dead/Number Treated, Females” value (animals; 4 mg/kg (1.6 mg/mL)) was 5/5, the “Number Dead/Number Treated, Males” value (animals; 4 mg/kg (1.6 mg/mL)) was 5/5 and the “inhibition of brain AChE” value (brain AChE [5]) was “up to 80%”. The “reversing ischemia-induced cognitive deficits” value (rats [6]) was “highly effective”, the “cognitive performance in patients” value [7] was “improvement in cognitive performance” and the “inhibition in the brain” value (brain AChE [8]) was 90%. For the same compound, the “clinical signs of distress and/or death” value (rats [9]; oral gavage, 1.0 mg/kg daily, MSF/peanut oil 1.0 mg/ml, 1 mg/kg) was “high toxicity and animal deaths”, the “Number Alive/Numbered Treated” value (rats [9]; oral, 1 mg/kg daily, 4 days) was 0/7 (4 males + 3 female) and the “septal choline acetyltransferase immunoreactivity” value [10] was “more intense septal choline acetyltransferase immunoreactivity”. For the same compound, the “inhibition of acetylcholinesterase in the brain” value [11] was “about 90%”, the “inhibition of rodent brain acetylcholinesterase” value [12, 15] was 80-90% and the “inhibition of brain cholinesterase (average)” value ([12]; rodents, administered daily at low doses (Moss et al., 1988)) was 90%. The animals survived (rats [13]; total of 8 mg/kg in 8 days) was 83.3%, the “Number Alive/Numbered Treated” value (rats [13]; 4 days (total 4 mg/kg)) was 6/6 (3 males + 3 female) and the “lethality” value (rats [13]; 4 days (total 4 mg/kg)) was “no lethal event; also recorded: By Day 4, all rats were alive and it was decided to continue the treatment”. For the same compound, the “Number Alive/Numbered Treated” value (rats [13]; 8 days (total 8 mg/kg)) was 5/6 (3 males + 3 female) and 5/6, the “lethality” value (rats [13]; 8 days (total 8 mg/kg), follow-up over two weeks) was 1 animal was found dead and the “inhibition of enzyme in the periphery” value [14] was “less than 30%”. The “selectivity for inhibition of human cortex AChE compared to butyrylcholinesterase” value (human cortex AChE) was “highly selective” and the “reversing normal age-related memory impairment” value (aged rats) was “highly effective”.
